The values below are quoted from earlier work in patent US20250144071A1, “METHOD FOR PRODUCING ELLAGIC ACID-CONTAINING COMPOSITION AND ELLAGIC ACID-CONTAINING COMPOSITION” (SUMITOMO CHEMICAL COMPANY, LIMITED, priority 2022, published 2025).

With `O=c1oc2c(O)c(O)cc3c(=O)oc4c(O)c(O)cc1c4c23` [ellagic acid], the “Solubility of ellagic acid in water” value is “about 20 μg/mL”.
